Reference: ChEMBL document CHEMBL4823254, “Tetrahydroquinoline-Capped Histone Deacetylase 6 Inhibitor SW-101 Ameliorates Pathological Phenotypes in a Charcot-Marie-Tooth Type 2A Mouse Model” (J Med Chem, 2021)
The source made the active and inactive calls. No cut-off for these calls is given here.

Assays:
[1] = Half life in CD1 mouse pooled liver microsomes assessed as parent compound remaining measured up to 60 mins in presence of NADPH by LC-MS/MS analysis; assay type: ADME, Microsome; details: CD1, mouse, pooled liver microsomes
Histone deacetylase 3 = Histone deacetylase 3 (Homo sapiens, UniProt O15379); experiment: Inhibition of recombinant human HDAC3 using Ac-GAK(Ac)-AMC as substrate preincubated for 10 mins followed by substrate addition and measured after 30 mins by fluorescence-based assay
[2] = Half life in human liver s9 fraction; assay type: ADME, subcellular
[3] = Genotoxicity in Salmonella typhimurium TA98 at 5 to 100 uM in presence of liver S9 fraction by Ames test; assay type: toxicity; details: salmonella enterica subsp. enterica serovar typhimurium, s9, 100 µM; dose 5-100 µM
[4] = Genotoxicity in Salmonella typhimurium TA100 at 5 to 100 uM in absence of liver S9 fraction by Ames test; assay type: toxicity; details: salmonella enterica subsp. enterica serovar typhimurium, s9, 100 µM; dose 5-100 µM
[5] = Genotoxicity in Salmonella typhimurium TA1535 at 5 to 100 uM in absence of liver S9 fraction by Ames test; assay type: toxicity; details: salmonella enterica subsp. enterica serovar typhimurium, s9, 100 µM; dose 5-100 µM
[6] = Protein binding in mouse plasma; assay type: ADME, cell-free; details: read-out: PPB (converted)
[7] = target: T1, Protein deacetylase HDAC6 (Mus musculus) (UniProt Q9Z2V5); experiment: In vivo inhibition of HDAC6 in wild type mouse assessed as increase in alpha-tubulin acetylation in sciatic nerve tissue at 20 mg/kg, ip administered for 12 hrs by immunoblot analysis relative to control; assay type: functional, organism-based; set-up: scale not given: the % may be the effect or the level left
T1 sequence (whole entry): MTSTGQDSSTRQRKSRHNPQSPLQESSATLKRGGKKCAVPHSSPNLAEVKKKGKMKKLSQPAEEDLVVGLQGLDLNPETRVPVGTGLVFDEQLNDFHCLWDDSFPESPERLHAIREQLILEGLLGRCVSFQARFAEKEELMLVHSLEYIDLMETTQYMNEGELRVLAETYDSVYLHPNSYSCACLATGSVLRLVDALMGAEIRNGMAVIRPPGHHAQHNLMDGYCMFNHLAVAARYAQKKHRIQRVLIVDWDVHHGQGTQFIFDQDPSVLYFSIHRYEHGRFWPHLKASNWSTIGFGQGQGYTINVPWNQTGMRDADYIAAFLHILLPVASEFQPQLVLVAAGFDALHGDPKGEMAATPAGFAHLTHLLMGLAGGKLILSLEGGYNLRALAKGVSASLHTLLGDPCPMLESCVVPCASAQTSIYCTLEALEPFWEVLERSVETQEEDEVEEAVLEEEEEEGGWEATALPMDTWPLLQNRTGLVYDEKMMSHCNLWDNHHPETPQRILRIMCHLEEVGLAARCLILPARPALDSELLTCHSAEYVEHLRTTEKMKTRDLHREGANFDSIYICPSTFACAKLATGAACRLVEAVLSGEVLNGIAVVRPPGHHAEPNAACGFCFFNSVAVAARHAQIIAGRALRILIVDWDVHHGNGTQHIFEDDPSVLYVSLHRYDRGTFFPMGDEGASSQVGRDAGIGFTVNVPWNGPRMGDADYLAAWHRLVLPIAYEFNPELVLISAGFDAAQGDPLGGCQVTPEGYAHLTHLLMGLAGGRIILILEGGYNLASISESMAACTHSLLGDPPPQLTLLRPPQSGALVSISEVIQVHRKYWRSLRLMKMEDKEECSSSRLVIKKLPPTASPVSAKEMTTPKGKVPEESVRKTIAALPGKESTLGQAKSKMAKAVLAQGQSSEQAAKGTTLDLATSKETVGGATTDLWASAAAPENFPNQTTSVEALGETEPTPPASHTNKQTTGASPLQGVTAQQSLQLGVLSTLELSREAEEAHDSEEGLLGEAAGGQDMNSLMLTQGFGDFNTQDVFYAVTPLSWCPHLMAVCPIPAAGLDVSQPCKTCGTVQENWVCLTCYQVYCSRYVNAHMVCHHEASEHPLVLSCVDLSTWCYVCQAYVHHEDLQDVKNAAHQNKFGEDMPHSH

[8] = target: T1, Protein deacetylase HDAC6 (Mus musculus); experiment: In vivo inhibition of HDAC6 in wild type mouse assessed as increase in alpha-tubulin acetylation in sciatic nerve tissue at 10 to 20 mg/kg, ip measured after 48 hrs by immunoblot analysis; assay type: functional, organism-based; details: dose 10-20 mg/kg
Mus musculus [9] = experiment: Neuroprotective activity in hMFN2-induced CMT2A transgenic mouse model assessed as increase in motor performance at 20 mg/kg, ip qd by rotarod test; assay type: functional, organism-based
Mus musculus [10] = experiment: Neuroprotective activity in hMFN2-induced CMT2A transgenic mouse model assessed as increase in paw withdrawal latency at 20 mg/kg, ip qd by von Frey test; assay type: functional, organism-based

Sequence of Histone deacetylase 3 (O15379 whole entry): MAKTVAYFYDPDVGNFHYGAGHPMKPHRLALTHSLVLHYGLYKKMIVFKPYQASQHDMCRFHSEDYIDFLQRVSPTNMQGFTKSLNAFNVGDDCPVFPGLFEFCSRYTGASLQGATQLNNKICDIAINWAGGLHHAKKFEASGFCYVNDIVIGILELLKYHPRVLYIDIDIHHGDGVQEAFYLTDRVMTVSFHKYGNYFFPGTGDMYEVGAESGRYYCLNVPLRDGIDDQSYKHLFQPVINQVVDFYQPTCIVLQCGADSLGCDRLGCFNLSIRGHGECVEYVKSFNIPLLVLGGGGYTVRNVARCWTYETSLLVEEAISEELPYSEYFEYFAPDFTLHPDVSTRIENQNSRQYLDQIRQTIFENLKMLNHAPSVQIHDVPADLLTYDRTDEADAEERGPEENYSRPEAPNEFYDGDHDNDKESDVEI

- half-life [1]: 1.48 h
- IC50 (Histone deacetylase 3): 0.235 µM
- half-life [2]: > 16.7 h
- fraction unbound [6]: 0.241
- Activity [7]: 175%
- inhibition [8]: inactive
Compound: NC(=O)c1ccc2c(c1)CCCN2Cc1ccc(C(=O)NO)cc1
- Activity [3]: Non-Toxic
- Activity [4]: Non-Toxic
- Activity [5]: Non-Toxic
- Activity (Mus musculus [9]): Active
- Activity (Mus musculus [10]): Active
